Calls of active or inactive are those of the source. Cut-off read from the data, not from the text of the source, for most assays here: actives have a measured EC50 and inactives only a lower limit.
What was measured:
[1] = P. falciparum Dd2 growth inhibitors, dose response, SYBR Green, cherry-picked samples (AID 1159567); type: functional, cell-based
[2] = Luminescence Cell-Based Dose Response HTS to Identify Inhibitors of 5'UTR Stem-Loop Driven Prion Protein mRNA Translation in H4 Neuroglioblastoma Cells. [Related pubchem assays: 1827 (Project Summary), 1813 (Primary HTS)]; type: functional
[3] = inhibitors of SNCA 5'UTR-driven reporter translation, confirmation, H4 neuroglioma cells, luminescence (AID 1988); type: functional, cell-based
[4] = inhibitors of firefly luciferase expression or activity, dose response, H4 neuroglioma cells, luminescence (AID 1990); type: functional, cell-based
Streptococcus = experiment: Group A Streptococcus viability loss, dose response, counter-screen for streptokinase expression inhibitor project, luminescence, BacTiterGlo (AID 1915); type: functional, organism-based;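 note: potency for reduction of bacterial viability or growth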
[5] = tested on: Streptococcus sp. 'group A'; experiment: growth inhibition of control SK(-) GAS strain, dose response, counter-screen for streptokinase expression inhibitor project, luminescence, kanamycin, BacTiterGlo, confirmation (AID 1900); type: functional, organism-based
Streptokinase A = target: T1, Streptokinase A (Streptococcus pyogenes serotype M1, UniProt P10520); experiment: S. pyogenes streptokinase expression inhibitors, potency, dose response, plasminogen activation absorbance, OD405 (AID 1914); type: functional, Streptococcus pyogenes M1 GAS;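 note: secreted streptokinase activity via plasminogen activation per viability signal from cell pellet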
T1 sequence (P10520 whole entry): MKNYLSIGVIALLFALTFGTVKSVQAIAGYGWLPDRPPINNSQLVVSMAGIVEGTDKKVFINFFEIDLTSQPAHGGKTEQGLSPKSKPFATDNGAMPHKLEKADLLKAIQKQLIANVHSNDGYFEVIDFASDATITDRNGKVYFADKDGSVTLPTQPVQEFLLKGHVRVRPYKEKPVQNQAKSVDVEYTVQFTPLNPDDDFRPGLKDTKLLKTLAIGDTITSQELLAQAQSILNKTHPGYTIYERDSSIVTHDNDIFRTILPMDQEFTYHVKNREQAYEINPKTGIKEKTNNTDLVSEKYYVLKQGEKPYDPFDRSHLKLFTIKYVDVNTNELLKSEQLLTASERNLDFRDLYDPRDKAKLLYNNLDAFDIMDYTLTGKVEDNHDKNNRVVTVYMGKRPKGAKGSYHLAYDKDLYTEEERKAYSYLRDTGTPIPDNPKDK

INS1 = experiment: beta cell apoptosis inhibitors, cytokine rescue, dose response, luminescence, retest (AID 449756); type: functional, cell-based; settings: Rattus norvegicus;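 note: cell death triggered by IL-1 beta plus TNF-alpha plus IFN-gamma mixture; protective hits raise ATP signal compared with cytokine alone wells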
[6] = HEp-2 cell cytotoxicity, dose response, cytotoxicity control for RSV inhibitor project, HTS (AID 2410); type: functional; settings: human respiratory syncytial virus
[7] = target: T2, Calpain-2 catalytic subunit (Sus scrofa, UniProt P43367); experiment: pig calpain II inhibitor potency, dose response, biochemical, fluorogenic peptide substrate (AID 1420); type: functional
T2 sequence (P43367 whole entry): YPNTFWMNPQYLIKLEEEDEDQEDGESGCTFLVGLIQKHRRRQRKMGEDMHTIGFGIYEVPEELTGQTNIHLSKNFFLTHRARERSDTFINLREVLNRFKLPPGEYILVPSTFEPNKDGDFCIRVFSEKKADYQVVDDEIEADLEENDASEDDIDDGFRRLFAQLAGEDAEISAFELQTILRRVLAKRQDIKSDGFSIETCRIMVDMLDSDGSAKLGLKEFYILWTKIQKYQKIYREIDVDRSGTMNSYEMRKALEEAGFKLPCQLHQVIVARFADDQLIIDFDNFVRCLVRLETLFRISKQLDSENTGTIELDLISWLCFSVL

[8] = target: T3, Corticotropin-releasing factor receptor 2/Corticotropin-releasing factor-binding protein (Homo sapiens, UniProt P24387+Q13324); experiment: activators of CRF receptor 2 with binding protein – uHTS hits, confirmation (AID 602473); type: functional; settings: read-out: EC50_Mean
T3 sequence (Q13324 whole entry): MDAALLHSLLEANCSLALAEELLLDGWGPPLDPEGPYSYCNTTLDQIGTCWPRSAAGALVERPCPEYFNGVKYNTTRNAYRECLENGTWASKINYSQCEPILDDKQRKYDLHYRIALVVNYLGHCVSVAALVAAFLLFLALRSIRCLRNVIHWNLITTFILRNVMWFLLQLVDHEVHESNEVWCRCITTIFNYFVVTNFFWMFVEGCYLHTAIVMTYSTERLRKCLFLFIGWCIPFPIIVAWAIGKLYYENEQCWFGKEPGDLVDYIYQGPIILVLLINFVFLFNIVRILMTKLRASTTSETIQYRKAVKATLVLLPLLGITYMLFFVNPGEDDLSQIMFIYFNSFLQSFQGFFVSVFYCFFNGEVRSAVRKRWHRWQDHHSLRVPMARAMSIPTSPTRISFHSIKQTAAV
T3 sequence (P24387 whole entry): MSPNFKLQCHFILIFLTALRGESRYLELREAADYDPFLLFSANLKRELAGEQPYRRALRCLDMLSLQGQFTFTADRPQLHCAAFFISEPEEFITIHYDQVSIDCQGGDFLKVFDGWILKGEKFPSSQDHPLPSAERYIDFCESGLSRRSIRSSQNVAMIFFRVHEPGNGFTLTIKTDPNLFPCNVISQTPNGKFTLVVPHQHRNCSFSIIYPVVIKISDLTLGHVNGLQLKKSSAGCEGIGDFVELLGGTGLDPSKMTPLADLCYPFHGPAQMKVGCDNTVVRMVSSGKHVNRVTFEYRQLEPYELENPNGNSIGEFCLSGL

[9] = target: T3, Corticotropin-releasing factor receptor 2/Corticotropin-releasing factor-binding protein; experiment: Dose Response confirmation of uHTS hits for small molecule antagonists of the CRF-binding protein and CRF-R2 receptor complex.; type: functional; settings: read-out: IC50_Mean

For `N#Cc1ccc(-c2ccc([C@H]3[C@@H](CO)N4C(=O)CN(C(=O)Cc5ccccc5)C[C@@H]34)cc2)cc1`, the AC50 [1] was 18.1 µM (active).
In the case of `Nc1c(S(=O)(=O)c2cccs2)c2nc3ccccc3nc2n1Cc1ccccc1`, the EC50 [2] is reported as > 120 µM (not active), the EC50 [3] is reported as > 120 µM (not active) and the EC50 [4] is reported as 20.7 µM (active).
For `Cc1ccc(-n2c(SCC(=O)NCCC3=CCCCC3)nc3nnc(C)c-3c2N)cc1Cl`, the EC50 [2] was 75.9 µM (active), the EC50 [3] was > 120 µM (not active) and the EC50 [4] was 23 µM (active).
With `Cc1cccc(/C=C2\Sc3ccc(C(=O)N4CCC(C)CC4)cc3N(C)C2=O)c1` the EC50 (Streptococcus) was 7.54 µM (active), the EC50 [5] was 3.11 µM (active) and the EC50 (Streptokinase A) was 20.3 µM (active).
In the case of `O=C(C1CC12CCCC2)N1CCC(CO)(Cc2ccccc2Cl)CC1` (centres undefined), the EC50 [2] is reported as 120 µM (active), the EC50 [3] is reported as > 120 µM (not active) and the EC50 [4] is reported as 19 µM (active).
In the case of `O=C(NNC(=O)c1cccnc1SCc1cccc([N+](=O)[O-])c1)c1ccc(F)cc1`, the AC50 (INS1) is reported as 7.02 µM (active).
For `COCCn1c(=O)c2c(nc3n2CC(C)CN3CCc2ccccc2)n(C)c1=O` (centres undefined), the EC50 [2] was > 120 µM (not active), the EC50 [3] was > 120 µM (not active) and the EC50 [4] was > 120 µM (not active).
For `CC(N=C(S)NC1CCCCC1)c1ccc(C(C)(C)C)cc1` (centres undefined), the AC50 (INS1) was 6.14 µM (active).
With `CO[C@H]1CN(C)C(=O)c2cc(NC(=O)c3nc4ccccc4s3)ccc2OC[C@H](C)NC[C@@H]1C` the AC50 [1] was 13.5 µM (active).
In the case of `CCC(CC)C1=NN2C(=N)/C(=C\c3c(C)[nH]c4ccccc34)C(=O)N=C2S1`, the EC50 (Streptococcus) is reported as 53 µM (active), the EC50 [5] is reported as 5.71 µM (active) and the CC50 [6] is reported as 16.1 µM (active). For the same compound, the EC50 (Streptokinase A) was 18.9 µM (inconclusive).
For `Fc1cccc(Cl)c1CSc1ccc(-c2cccnc2)nn1`, the IC50 [7] was 29.7 µM (not active) and the CC50 [6] was > 50 µM (active).
With `CCCn1c(C2CCCN2c2nc(-c3cccc(Br)c3)cs2)nc2cc(Cl)c(Cl)cc21` (centres undefined) the EC50 (Streptococcus) was 56.5 µM (active), the EC50 [5] was 2.99 µM (active) and the EC50 (Streptokinase A) was > 150 µM (not active).
In the case of `Cc1ccc(S(=O)(=O)N2c3ccccc3OCC2C(C)(C)C)cc1` (centres undefined), the EC50 (Streptococcus) is reported as > 150 µM (not active), the EC50 [5] is reported as 16.4 µM (active) and the EC50 [8] is reported as > 53 µM (inactive). The EC50 (Streptokinase A) was 16.9 µM (active) and the IC50 [9] was > 47.1 µM (inactive).
In the case of `CCCNC(=O)c1ccc(N2CCC3(CC2)CC(c2ccccc2)=NO3)c(NC(=O)c2ccccc2)c1`, the EC50 [2] is reported as > 120 µM (not active), the EC50 [3] is reported as 12.7 µM (active) and the EC50 [4] is reported as 18.7 µM (active).
For `C[C@@H]1CN([C@@H](C)CO)C(=O)c2c(c3ccccc3n2C)-c2ccccc2CO[C@H]1CN(C)C(=O)Nc1ccccc1C(F)(F)F`, the AC50 [1] was 4.33 µM (active).
For `CN(C)C(=O)c1ccc(NC(=O)c2cccc(S(=O)(=O)N3CCCCCC3)c2)cc1`, the AC50 (INS1) was > 260 µM (inactive).
For `Cc1cccc(OCCNc2ccc([N+](=O)[O-])cn2)c1`, the IC50 [7] was > 50 µM (not active).
